# Activity calls are given as the source filed them.
# Tests used:
# [1] = blockers of CRF-binding protein–CRF-R2 complex – cell-based, uHTS hits, 384-well, dose response (AID 651639); format: functional, Homo sapiens; conditions: read-out: IC50_Mean
# [2] = target: T1, Corticotropin-releasing factor receptor 2/Corticotropin-releasing factor-binding protein (Homo sapiens, UniProt P24387+Q13324); test: activators of CRF receptor 2 with binding protein – uHTS hits, confirmation (AID 602473); format: functional; conditions: read-out: EC50_Mean
# T1 sequence (Q13324 whole entry): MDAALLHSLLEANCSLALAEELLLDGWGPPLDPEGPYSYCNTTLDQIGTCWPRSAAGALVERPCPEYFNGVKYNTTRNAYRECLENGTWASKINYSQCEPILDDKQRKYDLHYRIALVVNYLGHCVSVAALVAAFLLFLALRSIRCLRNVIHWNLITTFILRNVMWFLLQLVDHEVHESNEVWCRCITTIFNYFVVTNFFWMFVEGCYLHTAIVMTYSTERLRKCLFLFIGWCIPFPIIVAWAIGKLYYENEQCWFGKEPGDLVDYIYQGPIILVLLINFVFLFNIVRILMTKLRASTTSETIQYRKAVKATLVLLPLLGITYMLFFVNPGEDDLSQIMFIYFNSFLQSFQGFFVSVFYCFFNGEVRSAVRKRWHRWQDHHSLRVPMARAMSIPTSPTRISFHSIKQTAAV
# T1 sequence (P24387 whole entry): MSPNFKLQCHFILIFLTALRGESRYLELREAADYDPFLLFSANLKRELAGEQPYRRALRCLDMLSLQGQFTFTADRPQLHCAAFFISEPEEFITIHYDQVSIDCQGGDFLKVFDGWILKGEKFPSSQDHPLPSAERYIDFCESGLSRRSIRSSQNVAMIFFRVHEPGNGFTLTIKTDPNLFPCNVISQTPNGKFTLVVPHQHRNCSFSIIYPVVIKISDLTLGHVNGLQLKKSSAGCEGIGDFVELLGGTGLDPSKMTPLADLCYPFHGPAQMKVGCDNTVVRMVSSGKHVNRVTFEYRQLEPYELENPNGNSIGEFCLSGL
# [3] = target: T1, Corticotropin-releasing factor receptor 2/Corticotropin-releasing factor-binding protein; test: Dose Response confirmation of uHTS hits for small molecule antagonists of the CRF-binding protein and CRF-R2 receptor complex.; format: functional; conditions: read-out: IC50_Mean
# Streptokinase A = target: T2, Streptokinase A (Streptococcus pyogenes serotype M1, UniProt P10520); test: viability-normalized secreted streptokinase activity reduction – plasminogen activation absorbance, OD405, dose response (AID 1914); format: functional, Streptococcus pyogenes M1 GAS;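 further: secreted streptokinase activity via plasminogen activation per viability signal from cell pellet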
# T2 sequence (P10520 whole entry): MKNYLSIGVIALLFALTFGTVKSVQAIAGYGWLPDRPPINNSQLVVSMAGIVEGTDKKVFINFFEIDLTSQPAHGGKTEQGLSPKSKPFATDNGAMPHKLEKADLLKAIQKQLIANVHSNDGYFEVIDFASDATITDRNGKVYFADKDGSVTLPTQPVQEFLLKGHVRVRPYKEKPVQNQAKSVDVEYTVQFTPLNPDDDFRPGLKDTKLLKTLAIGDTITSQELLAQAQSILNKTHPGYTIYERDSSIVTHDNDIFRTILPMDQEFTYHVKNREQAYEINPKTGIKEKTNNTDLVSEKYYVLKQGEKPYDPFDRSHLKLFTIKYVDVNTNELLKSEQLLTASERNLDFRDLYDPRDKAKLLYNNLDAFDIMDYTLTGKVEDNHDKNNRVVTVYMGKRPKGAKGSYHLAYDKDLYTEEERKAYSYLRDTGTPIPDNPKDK
# [4] = target: E3 ubiquitin-protein ligase Mdm2 (Homo sapiens, UniProt Q00987); test: MDM2-luc reporter signal enhancers, multi-concentration potency testing, MDM2 ubiquitin-protein ligase inhibitor program, whole-cell format, luminescence detection, 384-well microplate (AID 1394); format: functional;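 further: MDM2 E3 inhibitors raise luminescence so EC50 is for signal enhancement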
# [5] = target: T3, Replicative DNA helicase DnaB (Mycobacterium tuberculosis, UniProt P9WMR3); test: DnaB intein splicing inhibitors, dose response, biochemical, cell-free fluorescence (AID 449749); format: functional
# T3 sequence (P9WMR3 whole entry): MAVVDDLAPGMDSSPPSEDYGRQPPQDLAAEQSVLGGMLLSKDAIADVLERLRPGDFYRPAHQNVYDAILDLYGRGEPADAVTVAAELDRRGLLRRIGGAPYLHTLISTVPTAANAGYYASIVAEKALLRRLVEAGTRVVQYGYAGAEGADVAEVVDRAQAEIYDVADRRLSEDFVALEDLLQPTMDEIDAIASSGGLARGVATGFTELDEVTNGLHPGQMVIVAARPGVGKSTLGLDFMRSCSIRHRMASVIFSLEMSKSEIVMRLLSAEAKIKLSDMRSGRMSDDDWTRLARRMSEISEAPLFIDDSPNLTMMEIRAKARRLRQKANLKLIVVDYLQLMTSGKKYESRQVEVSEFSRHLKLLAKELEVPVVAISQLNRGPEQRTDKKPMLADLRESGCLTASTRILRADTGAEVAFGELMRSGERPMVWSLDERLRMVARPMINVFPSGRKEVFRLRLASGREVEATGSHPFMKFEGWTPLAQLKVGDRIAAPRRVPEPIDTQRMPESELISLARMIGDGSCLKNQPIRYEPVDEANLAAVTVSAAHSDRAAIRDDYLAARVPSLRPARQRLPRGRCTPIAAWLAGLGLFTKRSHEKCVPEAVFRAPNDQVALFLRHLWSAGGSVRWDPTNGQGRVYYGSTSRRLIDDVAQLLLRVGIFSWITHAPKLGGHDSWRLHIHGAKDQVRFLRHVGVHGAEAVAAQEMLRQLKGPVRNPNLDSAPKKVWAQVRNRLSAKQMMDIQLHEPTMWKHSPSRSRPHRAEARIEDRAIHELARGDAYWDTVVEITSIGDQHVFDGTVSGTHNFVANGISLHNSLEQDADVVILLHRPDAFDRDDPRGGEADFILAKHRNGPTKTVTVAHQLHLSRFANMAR
# [6] = target: Photoreceptor-specific nuclear receptor (Homo sapiens, UniProt Q9Y5X4); format: functional, cell-based;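 further: CHO-S cells with Gal4-NCOR and VP16-NR2E3 two-hybrid luciferase reporter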
# Protein RecA = target: T4, Protein RecA (Mycobacterium tuberculosis, UniProt P9WHJ3); test: Fluorescence Cell-Free Homogeneous Dose Retest to Identify Inhibitors of RecA-Intein Splicing Activity. [Related pubchem assays (depositor defined):AID2097, AID2223, AID489010, AID492950]; format: functional
# T4 sequence (P9WHJ3 whole entry): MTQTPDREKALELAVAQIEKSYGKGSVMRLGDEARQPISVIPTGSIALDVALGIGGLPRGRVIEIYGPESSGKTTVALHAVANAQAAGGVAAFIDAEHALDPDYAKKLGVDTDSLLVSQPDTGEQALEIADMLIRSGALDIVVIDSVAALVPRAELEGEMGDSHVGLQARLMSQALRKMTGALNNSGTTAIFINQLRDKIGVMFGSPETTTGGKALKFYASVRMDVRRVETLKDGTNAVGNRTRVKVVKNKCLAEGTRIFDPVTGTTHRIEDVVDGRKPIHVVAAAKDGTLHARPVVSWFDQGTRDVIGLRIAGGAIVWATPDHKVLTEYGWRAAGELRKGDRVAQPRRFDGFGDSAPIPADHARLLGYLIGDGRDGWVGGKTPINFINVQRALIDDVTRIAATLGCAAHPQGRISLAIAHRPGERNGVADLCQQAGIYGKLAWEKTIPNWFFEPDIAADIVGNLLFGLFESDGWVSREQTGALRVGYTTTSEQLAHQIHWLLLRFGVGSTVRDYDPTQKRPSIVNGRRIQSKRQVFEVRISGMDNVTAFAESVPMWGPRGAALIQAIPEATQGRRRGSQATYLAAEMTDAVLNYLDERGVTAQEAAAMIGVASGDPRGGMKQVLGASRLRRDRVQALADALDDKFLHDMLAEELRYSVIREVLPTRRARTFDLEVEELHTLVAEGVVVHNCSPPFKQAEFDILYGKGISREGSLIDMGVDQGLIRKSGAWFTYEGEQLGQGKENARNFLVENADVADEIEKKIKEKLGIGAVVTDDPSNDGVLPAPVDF
# Nonstructural protein 1 = Nonstructural protein 1 (Influenza A virus, UniProt Q194T2); format: functional, Influenza A virus (A/California/07/2009(H1N1))
# [7] = tested on: Streptococcus sp. 'group A'; test: Streptococcus pyogenes SK(-)GAS viability under kanamycin – luminescence, BacTiterGlo, confirmation, counter-screen for streptokinase expression inhibitor project, dose response (AID 1900); format: functional, organism-based
# [8] = target: T5, Heat shock factor protein 1 (Mus musculus, UniProt P38532); test: enhancement of HSF1-driven luciferase signal – cell-based, NIH3T3, luminescence, dose retest, confirmation (AID 435004); format: functional;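 further: stress induced by proteasome inhibitor MG132 added 30 min after compound; luciferase reporter driven by HSF1 response element in NIH3T3 cells; actives raise luminescence as potentiators of the MG132 stress response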
# T5 sequence (P38532 whole entry): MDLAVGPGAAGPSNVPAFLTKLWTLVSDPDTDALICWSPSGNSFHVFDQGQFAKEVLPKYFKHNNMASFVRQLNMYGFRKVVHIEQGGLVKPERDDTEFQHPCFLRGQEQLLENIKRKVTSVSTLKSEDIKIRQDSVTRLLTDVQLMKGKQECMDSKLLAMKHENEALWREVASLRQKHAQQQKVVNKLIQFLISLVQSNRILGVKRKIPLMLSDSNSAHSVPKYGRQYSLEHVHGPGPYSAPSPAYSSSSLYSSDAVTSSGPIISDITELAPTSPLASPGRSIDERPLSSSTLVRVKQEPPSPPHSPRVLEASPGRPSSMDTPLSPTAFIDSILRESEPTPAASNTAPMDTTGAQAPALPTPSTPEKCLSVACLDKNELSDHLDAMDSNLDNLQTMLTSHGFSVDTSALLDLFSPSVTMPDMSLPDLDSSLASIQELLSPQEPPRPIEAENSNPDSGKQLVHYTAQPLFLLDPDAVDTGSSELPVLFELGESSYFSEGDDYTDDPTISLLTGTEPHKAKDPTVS
# Streptococcus = test: GAS UMAA2166 growth inhibition – luminescence, BacTiterGlo, counter-screen for streptokinase expression inhibitor project, dose response (AID 1915); format: functional, organism-based;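 further: potency for reduction of bacterial viability or growth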
# cells [9] = format: functional, cell-based
# [10] = microbe, parasite or virus in culture; format: functional; conditions: Mycobacterium tuberculosis
# INS1 = test: INS-1E survival protection against cytokine death – cell-based, luminescence, retest, dose response (AID 449756); format: functional; conditions: Rattus norvegicus;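 further: cell death triggered by IL-1 beta plus TNF-alpha plus IFN-gamma mixture; protective hits raise ATP signal compared with cytokine alone wells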
# cells [11] = format: functional, cell-based; remark: listed apart in the source
# [12] = target: Hepatocyte nuclear factor 4-alpha (Homo sapiens, UniProt P41235); format: functional, cell-based;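 further: biochemical luminescence-based dose-response counterscreen measuring inhibition of HNF4 dimerization, run alongside a screen for blockers of ABHD5–perilipin-5 interaction; split luciferase complementation of HNF4 fusion proteins in cell lysate measuring dimerization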
# Chain of Hepatocyte nuclear factor 4-alpha (P41235 whole entry, the tested form may be a part): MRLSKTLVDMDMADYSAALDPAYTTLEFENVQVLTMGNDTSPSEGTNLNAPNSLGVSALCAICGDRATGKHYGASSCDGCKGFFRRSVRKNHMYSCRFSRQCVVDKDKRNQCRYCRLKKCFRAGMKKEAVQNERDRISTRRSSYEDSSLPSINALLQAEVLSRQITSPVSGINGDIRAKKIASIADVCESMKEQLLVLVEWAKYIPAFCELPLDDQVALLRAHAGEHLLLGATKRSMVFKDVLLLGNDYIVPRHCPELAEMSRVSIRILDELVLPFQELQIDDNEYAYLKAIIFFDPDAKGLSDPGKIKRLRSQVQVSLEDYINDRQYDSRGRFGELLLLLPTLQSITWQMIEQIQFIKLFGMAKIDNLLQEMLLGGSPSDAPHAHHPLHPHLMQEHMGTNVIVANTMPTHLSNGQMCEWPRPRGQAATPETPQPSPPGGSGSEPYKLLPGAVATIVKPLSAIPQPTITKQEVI
# Chain of Nonstructural protein 1 (Q194T2 whole entry): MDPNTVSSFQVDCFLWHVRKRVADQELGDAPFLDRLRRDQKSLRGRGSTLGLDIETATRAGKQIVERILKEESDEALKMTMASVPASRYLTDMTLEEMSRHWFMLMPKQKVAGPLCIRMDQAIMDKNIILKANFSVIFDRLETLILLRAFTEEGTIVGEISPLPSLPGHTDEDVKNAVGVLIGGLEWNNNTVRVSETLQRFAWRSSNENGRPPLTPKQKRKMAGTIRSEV
# Chain of E3 ubiquitin-protein ligase Mdm2 (Q00987 whole entry): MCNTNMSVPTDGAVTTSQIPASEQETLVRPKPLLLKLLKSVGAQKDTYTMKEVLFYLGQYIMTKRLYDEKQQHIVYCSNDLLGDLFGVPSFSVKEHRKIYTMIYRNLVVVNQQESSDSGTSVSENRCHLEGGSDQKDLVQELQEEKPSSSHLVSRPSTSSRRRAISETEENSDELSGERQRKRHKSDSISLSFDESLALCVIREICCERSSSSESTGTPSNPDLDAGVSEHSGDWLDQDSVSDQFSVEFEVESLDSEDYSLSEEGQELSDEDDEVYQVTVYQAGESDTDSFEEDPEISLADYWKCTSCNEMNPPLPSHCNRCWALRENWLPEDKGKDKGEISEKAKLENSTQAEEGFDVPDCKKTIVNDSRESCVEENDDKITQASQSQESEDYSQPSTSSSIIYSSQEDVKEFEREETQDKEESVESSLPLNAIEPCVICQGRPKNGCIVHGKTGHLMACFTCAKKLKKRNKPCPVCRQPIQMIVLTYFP
# Chain of Photoreceptor-specific nuclear receptor (Q9Y5X4 whole entry, the tested form may be a part): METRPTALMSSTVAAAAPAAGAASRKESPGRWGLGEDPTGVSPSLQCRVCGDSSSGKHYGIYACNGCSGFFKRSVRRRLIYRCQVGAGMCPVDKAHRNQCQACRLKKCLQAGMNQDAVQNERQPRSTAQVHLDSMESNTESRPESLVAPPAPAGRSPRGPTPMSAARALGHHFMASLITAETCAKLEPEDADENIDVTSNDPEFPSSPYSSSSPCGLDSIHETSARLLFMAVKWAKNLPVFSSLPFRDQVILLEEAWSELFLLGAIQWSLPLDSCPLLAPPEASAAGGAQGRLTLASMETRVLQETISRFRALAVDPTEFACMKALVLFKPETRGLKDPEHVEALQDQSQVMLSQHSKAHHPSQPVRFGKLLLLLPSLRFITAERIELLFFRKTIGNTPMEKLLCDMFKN
smiles,measurement,setting,value
COCCN=C(S)N1CCc2cc(OC)c(OC)cc2C1COc1cc(C)cc(C)c1 (configuration not stated),IC50,[1],> 20 µM (inactive)
same,EC50,[2],> 53 µM (inactive)
same,IC50,[3],32.1 µM (active)
Oc1[nH]c2ccccc2c1N=NC(=S)N1CCOCC1,EC50,Streptokinase A,> 150 µM (not active)
same,EC50,[4],2.24 µM (not active)
same,AC50,[5],> 380 µM (inactive)
same,IC50,[6],4.03 µM (active)
same,EC50,Protein RecA,12.9 µM (active)
same,IC50,Nonstructural protein 1,4.88 µM (active)
same,EC50,[7],0.271 µM (active)
same,EC50,[8],3.31 µM (inconclusive)
same,EC50,Streptococcus,5.64 µM (active)
same,EC50,cells [9],7.37 µM (active)
same,CC50,[10],5.25 µM (active)
same,AC50,INS1,2.25 µM (active)
same,EC50,cells [11],> 350 µM (not active)
Cc1cccc(C)c1NC(=O)C(c1ccc(-c2ccccc2)cc1)n1c(=O)c(-c2ccco2)nc2ccccc21 (configuration not stated),IC50,[12],1.34 µM (active)
